Measurements published in patent US9708331B2, “Metabotrophic glutamate receptor 5 modulators and methods of use thereof” (SUNOVION PHARMACEUTICALS INC., priority 2011, dated 2017).

Experiments:
mGluR5 [1] = target: T1, mGluR5 (Homo sapiens, UniProt P41594); test: mGluR5 PAM EC50 (positive allosteric modulator potency); assay type: cell-based
mGluR5 [2] = target: T1, mGluR5; test: mGluR5 fold shift at a fixed compound concentration; assay type: cell-based

T1 sequence (P41594 21-1212): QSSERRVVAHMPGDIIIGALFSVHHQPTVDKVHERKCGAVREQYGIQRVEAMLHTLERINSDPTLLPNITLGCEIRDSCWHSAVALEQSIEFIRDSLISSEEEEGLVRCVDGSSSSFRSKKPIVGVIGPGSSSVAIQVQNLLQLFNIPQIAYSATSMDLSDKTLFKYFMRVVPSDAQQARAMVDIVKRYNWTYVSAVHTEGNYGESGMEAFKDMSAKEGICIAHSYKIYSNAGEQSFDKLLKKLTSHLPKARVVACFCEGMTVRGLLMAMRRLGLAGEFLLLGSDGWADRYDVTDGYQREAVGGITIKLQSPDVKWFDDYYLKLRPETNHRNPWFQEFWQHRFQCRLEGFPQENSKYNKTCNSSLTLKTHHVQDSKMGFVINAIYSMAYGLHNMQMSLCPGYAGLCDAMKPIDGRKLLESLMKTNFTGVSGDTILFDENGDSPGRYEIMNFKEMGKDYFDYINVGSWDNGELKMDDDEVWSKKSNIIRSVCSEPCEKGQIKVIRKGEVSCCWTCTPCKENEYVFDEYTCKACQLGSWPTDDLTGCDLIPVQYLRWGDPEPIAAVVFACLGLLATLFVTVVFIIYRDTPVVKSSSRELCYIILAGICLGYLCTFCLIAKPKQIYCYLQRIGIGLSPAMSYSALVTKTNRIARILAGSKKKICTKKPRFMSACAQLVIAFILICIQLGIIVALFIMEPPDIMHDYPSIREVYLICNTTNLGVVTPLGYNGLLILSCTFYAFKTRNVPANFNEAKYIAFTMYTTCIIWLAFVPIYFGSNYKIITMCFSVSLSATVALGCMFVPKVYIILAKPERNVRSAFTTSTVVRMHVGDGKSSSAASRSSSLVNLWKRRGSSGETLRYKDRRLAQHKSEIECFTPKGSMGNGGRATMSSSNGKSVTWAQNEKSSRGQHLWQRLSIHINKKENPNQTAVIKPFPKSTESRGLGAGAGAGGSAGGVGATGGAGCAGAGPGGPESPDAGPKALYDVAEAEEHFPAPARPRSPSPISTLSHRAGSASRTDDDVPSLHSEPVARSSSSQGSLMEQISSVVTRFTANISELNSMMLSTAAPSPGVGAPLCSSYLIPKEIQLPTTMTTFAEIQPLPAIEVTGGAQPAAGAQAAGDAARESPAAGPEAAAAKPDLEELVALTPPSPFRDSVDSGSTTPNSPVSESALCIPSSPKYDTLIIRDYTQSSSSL

EC50 (mGluR5 [1]) | Fold shift at 1 μM (mGluR5 [2]) | Fold shift at 10 μM (mGluR5 [2]; at 10 μM) | Structure (SMILES)
30 to 100 nM | ++ (++ is between 2.0 and 2.9) |  | COc1cccc(C#Cc2ccc3c(=O)n4c(nc3c2)CCC(C)(C)C4)n1 [Example 2.101, 3-((6-methoxypyridin-2-yl)ethynyl)-8,8-dimethyl-8,9-dihydro-6H-pyrido[2,1-b]quinazolin-11(7H)-one]
30 to 100 nM | + (+ is between 1.5 and 1.9) |  | COc1ccnc(C#Cc2ccc3c(=O)n4c(nc3c2)CCC(C)(C)C4)c1 [Example 2.102, 3-((4-methoxypyridin-2-yl)ethynyl)-8,8-dimethyl-8,9-dihydro-6H-pyrido[2,1-b]quinazolin-11(7H)-one]
30 to 100 nM | ++ (++ is between 2.0 and 2.9) |  | CC1(C)CCc2nc3cc(C#Cc4cccnn4)ccc3c(=O)n2C1 [Example 2.105, 8,8-dimethyl-3-(pyridazin-3-ylethynyl)-8,9-dihydro-6H-pyrido[2,1-b]quinazolin-11(7H)-one]
10 to 30 nM |  | +++ (+++>3) | O=c1c2ccc(C#Cc3ccccn3)cc2nc2n1CCC(F)(F)CC2 [Example 3.15, 8,8-difluoro-3-(pyridin-2-ylethynyl)-7,8,9,10-tetrahydroazepino[2,1-b]quinazolin-12(6H)-one]
10 to 30 nM | +++ (+++>3) |  | O=c1c2ccc(C#Cc3ccccn3)cc2nc2n1CC1(CCC2)CC1(F)F (stereo not drawn) [Example 3.40, 2′,2′-difluoro-3-(pyridin-2-ylethynyl)-7,8-dihydro-6H-spiro[azepino[2,1-b]quinazoline-9,1′-cyclopropan]-12(10H)-one]
100 to 300 nM | + (+ is between 1.5 and 1.9) |  | CC1(C)CCn2c(nc3cc(C(=O)Nc4ccccn4)ccc3c2=O)C1 [Example 4.11, 7,7-dimethyl-11-oxo-N-(pyridin-2-yl)-7,8,9,11-tetrahydro-6H-pyrido[2,1-b]quinazoline-3-carboxamide]
